Reference: publication PMC12686243, “Synthesis and preclinical evaluation of FAP-targeting radiotracers for PET and optical imaging” (EJNMMI Radiopharmacy and Chemistry, 2025)
Like-named read-outs stand apart in the source and are kept apart here.

Target: T1, hFAP (hFAP-HT1080 cells) (Homo sapiens, UniProt Q12884)
T1 construct: expressed in transfected cells; host or cells: HT1080 (human fibrosarcoma), lentiviral transduction
T1 sequence (Q12884 1-760): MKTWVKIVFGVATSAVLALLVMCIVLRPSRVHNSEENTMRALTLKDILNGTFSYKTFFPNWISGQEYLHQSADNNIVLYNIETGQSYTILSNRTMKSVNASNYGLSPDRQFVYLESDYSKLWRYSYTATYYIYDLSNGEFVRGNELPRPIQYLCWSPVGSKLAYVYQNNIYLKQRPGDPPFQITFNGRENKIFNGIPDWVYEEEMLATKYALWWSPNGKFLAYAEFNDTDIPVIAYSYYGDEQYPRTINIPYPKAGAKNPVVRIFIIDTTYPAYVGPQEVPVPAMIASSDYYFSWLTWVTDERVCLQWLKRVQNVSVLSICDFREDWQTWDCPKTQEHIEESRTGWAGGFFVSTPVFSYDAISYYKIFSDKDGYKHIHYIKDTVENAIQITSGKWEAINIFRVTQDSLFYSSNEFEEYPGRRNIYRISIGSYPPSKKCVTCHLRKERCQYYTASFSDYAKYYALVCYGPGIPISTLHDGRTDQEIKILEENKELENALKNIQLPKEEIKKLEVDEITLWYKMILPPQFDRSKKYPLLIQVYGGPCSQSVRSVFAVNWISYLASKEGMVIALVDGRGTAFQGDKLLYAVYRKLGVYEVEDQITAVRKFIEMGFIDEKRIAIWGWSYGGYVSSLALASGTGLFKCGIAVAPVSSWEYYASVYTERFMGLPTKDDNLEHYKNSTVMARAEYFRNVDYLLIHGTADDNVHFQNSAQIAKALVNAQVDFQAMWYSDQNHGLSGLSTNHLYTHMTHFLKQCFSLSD
Experiment: saturation binding to hFAP-HT1080 cells
Conditions: 60 min, 37 °C
Description: Saturation binding (n ≥ 3, in triplicates) was performed to estimate thermodynamic dissociation constants (KD) and number of binding sites (Bmax). hFAP-HT1080 were cultured under the conditions described above. On the day of the experiment, 48-well plates were kept at 37 °C in an incubation chamber. The medium was replaced with 200 µL CO2-independent medium, (Gibco #18045088, ThermoFisher Germany) for total binding (TB) conditions. For the assessment of nonspecific binding (NSB), the same medium was used, containing 14 µM of FAPI-04 (in DMSO, resulting in 0.007% v/v). After 15 min preincubation for TB/NSB, 200 µL of each eight serial 1:1 dilutions (75 to 0.12 nM) of the respective radioligand were added (in triplicate), resulting in a final concentration per well of 35–0.06 nM. Cells were incubated with the respective radioligand for 60 min at 37 °C. The incubation medium was discarded and the wells washed with ice-cold PBS (2x ~ 30 s). The cells were then lysed with 500 µL 0.1 M NaOH + 1% SDS. For radioactivity detection, 400 µL of lysate was measured in a gamma counter (Perkin Elmer Wizard 1480). Additionally, binding to polystyrene in absence of cells was determined in 400 µL of lysate, along with the activity of all dilutions (50 µL). However, intrinsic plastic adherence of both compounds was very low. All counts were decay-corrected to a reference time (end of radiolabeling). Protein content was determined in an additional plate, subjected to the same conditions (pre-incubation, incubation and washing) by BCA assay and a mean value (µg/mL) used for this particular dataset (all replicate plates). From CPM measurements, final values (pmol/mg protein) were calculated using mean protein content and molar activity. Similarly, lysates from a random plate were subjected to fluorescent detection. For that purpose, 100 µL were pipetted bubble free into a transparent bottom 96 well imaging plate (Greiner Bio-One, µclear #655087). The plate was then imaged on a Typhoon 9500 bio imager (GE, USA) using either the Cy5 or IR-long filter-set (350–500 PMT voltage). From these images, fluorescence density (counts/mm^2) was determined (Bio-Rad, Quantity One 4.6.8). All processed data was then subjected to non-linear iterative curve fitting (GraphPad Prism 10) to yield Bmax (in pmol/mg protein or CNT/mm^2) and KD (in nM).

[1] = n = 1, read-out: KD, fluorescent label detection, best fit
[2] = nonspecific binding with 14 µM FAPI-04, n = 3
[3] = nonspecific binding with 14 µM FAPI-04, n = 3, read-out: KD, radioactive label detection, best fit

| Structure (SMILES) | Bmax, fluorescent label detection, best fit (n = 1) | Kd [1] | Bmax, radioactive label detection, best fit [2] | Kd [3] |
| --- | --- | --- | --- | --- |
| CN(CCCN1CCN(C(=O)[C@H](CCCCNC(=O)CC[C@H](C(=O)[O-])N2CCN(CC(=O)[O-])CCN(CC(=O)[O-])CC2)NC(=O)CCOCCOCCOCCOCCNC(=O)CCCCC[N+]2=C(C=CC=CC=C3N(CCCS(=O)(=O)O)c4ccc(S(=O)(=O)O)cc4C3(C)C)C(C)(CCCS(=O)(=O)O)c3cc(S(=O)(=O)[O-])ccc32)CC1)c1ccc2nccc(C(=O)NCC(=O)N3CC(F)(F)C[C@H]3C#N)c2c1.[68Ga+3] (some centres unmarked) [[^68Ga]Ga-NODAGA-FAP647] | 4.8 * 10^5 AU | 0.76 nM | 1.63 pmol/mg/protein | 0.99 nM |
| CN(CCCN1CCN(C(=O)[C@H](CCCCNC(=O)CC[C@H](C(=O)[O-])N2CCN(CC(=O)[O-])CCN(CC(=O)[O-])CC2)NC(=O)CCOCCOCCOCCOCCNC(=O)CCCCCN2C(=CC=C3CCCC(C=CC4=[N+](CCCCS(=O)(=O)[O-])c5ccc(S(=O)(=O)O)cc5C4(C)C)=C3Oc3ccc(S(=O)(=O)O)cc3)C(C)(C)c3cc(S(=O)(=O)O)ccc32)CC1)c1ccc2nccc(C(=O)NCC(=O)N3CC(F)(F)C[C@H]3C#N)c2c1.[68Ga+3] [[^68Ga]Ga-NODAGA-FAP800] | 5.7 * 10^5 AU | 1.24 nM | 1.41 pmol/mg/protein | 1.65 nM |
